Experimental data as given in patent US5871779A, “Treatment of arthropathies with vanadate compounds or analogues thereof” (Mount Sinai Hospital Corporation, priority 1996, dated 1999).
“And” between values parts separate entries of the source, which are not always exact repeats. Identical values can stand only once.

Experiments:
MDAY-D2 tumor = test: BMOV loaded microspheres on tumor growth (Example 19); type: in vivo, mice; conditions: BMOV solution
Method: The effect of slow releasing microspheres loaded with 20% BNOV on tumor growth in mice was investigated as follows.
On day 6 the mice were divided into 6 groups as follows: group 1, empty control; group 3, tumor control; group 3, […]; group 4, injected IP with 20 mg palla beads containing 5 mg of BMOV; group 5, injected IP with 10 mg of BMOV beads on day 6 and day 9 respectively and; group 6, injected intramuscularly with 10 mg of BMOV beads on day 6 and day 9. On day 16, the mice were sacrificed and tumors were dissected.

fos = fos / c-fos mRNA expression in chondrocytes (Northern blot); type: cell-based, bovine; conditions: 100 μM
Outline: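 Bovine articular chondrocytes incubated 1 h with IL-1, PMA or AA (3 μM), or treated with IL 1 ± DPI, or with H2O2 for 30, 60 and 90 min. Total RNA run on formaldehyde agarose gels and probed by Northern blot with c-fos, c-jun or collagenase cDNA.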

tumor cell lines = test: cell death of proliferating tumor cell lines; type: cell-based
Method: Fos and jun activity are also required for cellular proliferation in many tumor cell lines. Accordingly, the effect of orthovanadate on adherent cells and cell suspensions were examined. MDAY-D2 (a mouse lymphoid cell line grown in suspension) and HTB14 cells (an adherent human primary astrocytoma cell line) were incubated in media containing 0-50 μM orthovanadate for 48 hours. The cells were harvested and the number of viable cells determined.

MCF7 (WT) = test: MTT cytotoxicity assay, MCF7 (WT); type: cell-based, human; conditions: MCF7 (WT), 72 hours; read-out: IC50 Value
Method: (§1) The relative cytotoxicity of various compounds on tumor cell lines was investigated as follows. Cytotoxicity was measured by the MTT microculture tetrazolium colorimetric assay for all cell lines. The relative cytotoxicity of Na3 VO4 and VOSO4 was investigated using the following tumor cell lines: P388(WT) murine leukemia, P388 (ADR) murine leukemia, Lewis murine lung, MCF7 (WT) human breast, […] human lung, K562 human erythroleukemia, A431 human epidermal, LS180 human colon and SK-OV-3 human ovarian. The relative cytotoxicity of doxorubicin, Na3 VO4 and VOSO4 was investigated using the following tumor cell lines: P388(WT) murine leukemia, P388 (ADR) murine leukemia, MCF7(WT) human breast and MCF7 (ADR) human breast. The relative cytotoxicity of BMOV, BEOV and naglivan was investigated using the following tumor cell lines: P388(WT) murine leukemia, P388 (ADR) murine leukemia, Lewis murine lung, H460 human lung, K562 human erythroleukemia, and SK-OV-3 human ovarian.
The cells were plated (number of cells/well was different from cell line to cell depending on the dividing rate) in a 96-well microculture plate 24 hours prior to the delivery of the vanadium compounds. Serial concentrations of solutions of the test compounds (0.05-100 μM) were delivered to the corresponding wells. A blank column (without cells) and a control column (with cells without vanadium) were left. The cells were incubated for 72 hours continuously. An MTT solution was added to each well after this incubation period and the cells were incubated for 4 more hours for the completion of the dyeing process. The medium was removed find DMSO was added to each well. The absorbance of each well was read with a Titertek Multiskan (310C) spectrophotometer at 570 nm. The percentage of the absorbance of each vanadium concentration relative to the control calculated and the value of the 50% growth inhibition concentration (IC50) was obtained from the % control versus concentration plot. Each assay was repeated three times and the reported IC50 values were the mean of these three runs.

A431 = test: MTT cytotoxicity assay, A431; type: cell-based, human; conditions: A431, 72 hours
Method: as §1
(§2) The cells were plated (number of cells/well was different from cell line to cell depending on the dividing rate) in a 96-well microculture plate 24 hours prior to the delivery of the vanadium compounds. Serial concentrations of solutions of the test compounds (0.05-100 μM) were delivered to the corresponding wells. […] The absorbance of each well was read with a Titertek Multiskan (310C) spectrophotometer at 570 nm. […]

LS180 = test: MTT cytotoxicity assay, LS180; type: cell-based, human; conditions: LS180, 72 hours
Method: as §1, §2

| Compound | Tumour weight, Average (MDAY-D2 tumor) | Tumour weight (MDAY-D2 tumor; individual mice) | inhibition of IL 1, PMA and AA induced c-fos expression (fos) | cell death (tumor cell lines; 0-50 μM) | cell death complete (tumor cell lines; within 3 days of continuous treatment) | IC50 (MCF7 (WT)) [µM] | IC50 (A431) [µM] | IC50 (LS180) [µM] |
| --- | --- | --- | --- | --- | --- | --- | --- | --- |
| Cc1occc(=O)c1[O-].Cc1occc(=O)c1[O-].[O]=[V+2] [BMOV, bis(methylmaltolato) oxovanadium (IV)] | 0.15 | 0.4 and 0.12 and 0.07 and 0.04 |  |  |  |  |  |  |
| [Na+].[Na+].[Na+].[O]=[V]([O-])([O-])[O-] [orthovanadate, sodium orthovanadate] |  |  | completely inhibited | concentration dependent increase in cell death | over 98% | 8.5 | 7.6 | 16.4 |
